Experimental data as given in patent US9358305B2, “Targeted carriers for drug delivery across the gastrointestinal epithelium” (University of Maryland, College Park, priority 2009, dated 2016).
Ends that are not written are not given here.

What was measured:
[1] = biological target: T1, native ICAM-1 expressed by activated HUVEC (Homo sapiens, UniProt P05362); assay: Binding of γ3/ASM carriers to activated HUVEC, with or without excess competitor; format: cell-based; conditions: 1 h, 37° C.
T1 construct: endogenous in cells
Protocol: (A) The peptide γ3 was absorbed on the surface of 100 nm FITC-labeled polystyrene carriers and the resulting products were incubated for 15 min on nitrocellulose-immobilized albumin vs human or mouse ICAM-1 chimeras containing ICAM-1-Ig domains 1 and 2 fused to human Fc sequence. The membranes were washed and analyzed by fluorescence microscopy to quantify the number of carriers bound per area. Data are expressed relative to non-specific binding of γ3 carriers to albumin controls (dotted line). A comparison to binding of anti-ICAM carriers is provided (dashed line). (B) Binding of FITC-labeled polystyrene carriers coated by absorption with the peptide γ3 and recombinant acid sphingomyelinase (ASM, a therapeutic enzyme) to activated HUVEC (bars) vs ICAM-1-negative 293 cells (dotted line) was quantified by fluorescence microscopy after 1 h incubation at 37° C., in the absence or presence of excess γ3, anti-ICAM, γ3 scramble peptide, or mannose 6 phosphate (M6P). Data is shown relative to HUVEC binding of γ3/ASM carriers (134±11 particles/cell). (C) HUVEC lysosomes were labeled for 2 h with Texas-red dextran at 37° C. […] Co-localization of FITC carriers with Texas-red dextran-lysosomes was quantified by fluorescence microscopy. […] Co-localization of FITC 2γ3 carriers with Texas red dextran-labeled lysosomes was assessed by microscopy 3 h post-internalization. […]

[2] = biological target: T2, ICAM-1 in the vascular endothelium (Mus musculus, UniProt P13597); assay: Lodging of fibrin microemboli in the vasculature of mice; format: in vivo
T2 construct: from tissue
Protocol: C57Bl/6 mice were first injected intravenously with γ3 to block ICAM-1 in the vascular endothelium in organs. Alternatively, injections of saline or anti-ICAM were used as controls. Fifteen minutes later the mice were injected with fibrin clots (microemboli around 3-5 micrometer) generated in the lab by established procedures.
Following microemboli administration, the microemboli amounts were measured in a gamma counter and calculated as percent of injected dose in circulation or localization ratio (the percent injected dose/gram in an organ divided by percent injected dose/gram in blood). FIG. 10(A) is a graphical illustration of the amount of microemboli in circulation in blood, as evaluated at 1 min after injection and FIG. 10(B) is a graphical illustration of the amount of microemboli lodging in the vasculature of the kidneys and spleen at 15 min after injection.

ICAM-1 on HUVEC = assay: Leukocyte transmigration across TNF-activated HUVEC monolayer in transwell; format: cell-based, human; conditions: compared to albumin, scrambled peptide and LB2 controls
Protocol: Human endothelial cells (human umbilical vein endothelial cells (HUVECs)) were grown until formation of a continuous confluent monolayer in a transwell filter located between upper and lower chambers. The cells were then treated with tumor necrosis factor alpha to mimic inflammatory activation of endothelial cells and SDF1a was added to the lower chamber to generate a gradient to attract white blood cells, as during inflammation. Lymphocytes isolated from human peripheral blood were activated with interleukin 2 and added to the upper chamber above endothelial cells in the absence (control) or presence of ICAM-1-targeting peptides A1, B7, B8, B9, B10, or D6. Albumin or a peptide of scrambled sequence were used as negative controls which should not block inflammatory transmigration of leukocytes across endothelial cells. The anti-ICAM antibody LB2, which is known to block leukocyte adhesion to ICAM-1, was used as a positive control which should block such transmigration.
Leukocytes which transmigrated to the lower chamber below endothelial cells were counted to assess their transmigration. FIG. 9 provides a graph of the resulting leukocyte transmigration as a percentage of the control. The peptides annotated with an asterisk in FIG. 9 indicate that the peptide was effective in statistically significant blockage of leukocyte transmigration across endothelial cells.

[3] = biological target: T3, ICAM-1 on human endothelial cells (Homo sapiens, UniProt P05362); assay: Competition of binding of anti-ICAM nanocarriers to human endothelial cells by synthetic peptides; format: cell-based
T3 construct: endogenous in cells
Source text: (§1) (A) ELISA measurement of the binding of 7-mer peptide expressing phage library to immobilized recombinant ICAM-1 (consisting of the two most membrane-distal Ig domains—1 and 2—of mouse ICAM-1 fused to human Fc or hFc), versus their binding to control hFc. (B) Relative specificity and (C) relative affinity of ICAM-1-targeting peptide phages, determined by ELISA from the experiment in (A). (D) Relative binding of phages expressing 7-mer peptides to native ICAM-1 expressed on the surface of HV5 mouse endothelial cells, either control or activated with TNFalpha to mimic a disease phenotype. Binding was determined by microscopy using a fluorescently-labeled antibody to the phage capsid. The line in the graph indicates the level of binding of A1 phage to 293 cells, which are voided of ICAM-1-expression. (E, F) Endocytosis (1 h, 37° C.) of phages expressing 7-mer peptides by control mouse endothelial cells (E) or mouse endothelial cells incubated in the presence of 3 mM amiloride (F) was estimated by microscopy after staining surface-located phages with a Texas red-labeled antibody to the viral capsid, following by cell permeabilization and staining of all (surface and internalized) phages using a FITC-labeled antibody to the viral capsid. (G) Binding of FITC-labeled anti-ICAM polystyrene nanocarriers to human endothelial cells was evaluated by fluorescence microscopy after incubation with cells in the absence (100% level) or presence of anti-ICAM antibody, ICAM-1-targeting synthetic peptides, or peptides with their scramble sequence (e.g., A1sc).

mouse endothelial cells = assay: Endocytosis of peptide phages by mouse endothelial cells; format: cell-based; conditions: for Internalization of phage viruses by endothelial cells: phages expressing 5 copies of the peptide, 37° C., 1 h
Source text: as §1

HUVEC = assay: Lysosomal transport of peptide-coated carriers in HUVEC; format: cell-based, human; conditions: for Binding, internalization and lysosomal transport of carriers: 37° C., co-localization with dextran-labeled lysosomes, carriers coated with the peptide
Protocol: (A) The peptide γ3 was absorbed on the surface of 100 nm FITC-labeled polystyrene carriers and the resulting products were incubated for 15 min on nitrocellulose-immobilized albumin vs human or mouse ICAM-1 chimeras containing ICAM-1-Ig domains 1 and 2 fused to human Fc sequence. The membranes were washed and analyzed by fluorescence microscopy to quantify the number of carriers bound per area. Data are expressed relative to non-specific binding of γ3 carriers to albumin controls (dotted line). A comparison to binding of anti-ICAM carriers is provided (dashed line). (B) Binding of FITC-labeled polystyrene carriers coated by absorption with the peptide γ3 and recombinant acid sphingomyelinase (ASM, a therapeutic enzyme) to activated HUVEC (bars) vs ICAM-1-negative 293 cells (dotted line) was quantified by fluorescence microscopy after 1 h incubation at 37° C., in the absence or presence of excess γ3, anti-ICAM, γ3 scramble peptide, or mannose 6 phosphate (M6P). Data is shown relative to HUVEC binding of γ3/ASM carriers (134±11 particles/cell). (C) HUVEC lysosomes were labeled for 2 h with Texas-red dextran at 37° C. Cells were then incubated for 30 min at 37° C. with FITC-labeled γ3/ASM carriers, non-bound carriers were washed, and incubation was continued up to 1, 2, or 3 h. Co-localization of FITC carriers with Texas-red dextran-lysosomes was quantified by fluorescence microscopy. (D) Comparison of lysosomal transport of 100 nm FITC-labeled polystyrene carriers coated with either ICAM-1-targeting peptide γ3 vs its derivatives 2γ3 and 3γ3. (E) Activated HUVEC were incubated for 30 min at 37° C. in the presence of FITC-labeled 2γ3 polystyrene carriers after 15 min pre-treatment with 3 mM amiloride to block ICAM-1-mediated endocytosis, or 0.1 μM PMA to activate PKC and promote ICAM-1-mediated endocytosis. Co-localization of FITC 2γ3 carriers with Texas red dextran-labeled lysosomes was assessed by microscopy 3 h post-internalization. Mean±SEM; n=2 assays. **p<0.005, ***p<0.001, by student's t test.

Caco-2 monolayers = assay: Transport of 125I-labelled carriers across Caco-2 monolayers on permeable inserts; format: in vitro ADME, human
Caco-2 cells = assay: Endocytosis of anti-ICAM carriers by Caco-2 cells; format: cell-based, human; conditions: TNF-α-treated Caco-2, 1 h, 37° C.
Protocol: Furthermore the ability of anti-ICAM carriers to be endocytosed by Caco-2 cells was examined. FITC-labeled anti-ICAM carriers were first incubated with cells for 30 min to allow binding, then non-bound carriers were washed and cells were incubated for varying times to allow carrier uptake. After cell fixation, surface-bound carriers were stained with Texas Red secondary antibody. […] Data are shown as means±S.E.M. (n≧20). […] Internalization was highly efficient: approximately 90% of the carriers bound to cells were internalized, which represents ˜60 carriers per cell.
The mechanism of uptake for Caco-2 cells treated with amiloride, a known inhibitor of CAM-mediated endocytosis (Muro et al., 2003), was examined. TNF-α-treated Caco-2 cells were incubated with FITC-labeled anti-ICAM carriers in the presence or absence of amiloride (1 h, 37° C.), and surface-bound carriers were stained with TxR goat anti-mouse. […] Upper panels of FIG. 14A show total carriers associated to cells, whereas lower panels show the fraction of surface-bound, non-internalized carriers. (Magnification bar=10 μm.) The fluorescence microscopy images were analyzed for the ratio of internalized carriers to surface-bound carriers, expressed as % internalization and normalized to the control. (FIG. 14B; Data are shown as means±S.E.M. (n≧20). *, p<0.001 by Student's t test.)

ICAM-1 = biological target: T4, ICAM-1 (Mus musculus, UniProt P13597); assay: Lung uptake (30 min) of radiolabeled ASM vs anti-ICAM carriers injected iv in mice; format: in vivo; conditions: 30 min after iv injection
T4 construct: from tissue
Protocol: (A) Lung uptake (30 min) of ^125I-labeled anti-transferrin receptor (targeted to the clathrin route), anti-GM1 (anti-ganglioside GM1, targeted to caveoli), or anti-ICAM, injected intravenously in mice as free antibodies or absorbed on the surface of 100 nm polystyrene particles (prototype carrier final size=180 nm). Particles had ^125I-labeled IgG as a tracer. Dashed line=control unspecific IgG carriers. (B) Lung uptake (30 min) of radiolabeled acid sphingomyelinase, a recombinant enzyme which binds to mannose 6 phosphate (M6P) receptor, vs anti-ICAM polystyrene carriers in control C57Bl/6 mice vs diseased ASMKO mice. Data is normalized per gram due to larger lung size in ASMKO mice. […] […]. […] (E) FITC-labeled anti-ICAM carriers of diverse geometry (anti-ICAM polystyrene spheres from 0.1 to 5 μm or 0.1×1×3 μm elliptical disks, and polymorphous anti-ICAM conjugates formed by biotin-streptavidin crosslinking were incubated with TNFα activated human umbilical vein endothelial cells (HUVEC) for 1 h at 37° C. The cells were then washed and fixed, cell surface-located carriers were differentially stained with a texas red-conjugated secondary antibody, and the samples were analyzed by fluorescence microscopy to quantify the percent of carriers internalized by the cells. Data are mean±standard error of the mean for n≧4 mice or ≧20 cells. *p<0.05, **p<0.005, ***p<0.001 by student's t test.

T2 sequence (P13597 28-537): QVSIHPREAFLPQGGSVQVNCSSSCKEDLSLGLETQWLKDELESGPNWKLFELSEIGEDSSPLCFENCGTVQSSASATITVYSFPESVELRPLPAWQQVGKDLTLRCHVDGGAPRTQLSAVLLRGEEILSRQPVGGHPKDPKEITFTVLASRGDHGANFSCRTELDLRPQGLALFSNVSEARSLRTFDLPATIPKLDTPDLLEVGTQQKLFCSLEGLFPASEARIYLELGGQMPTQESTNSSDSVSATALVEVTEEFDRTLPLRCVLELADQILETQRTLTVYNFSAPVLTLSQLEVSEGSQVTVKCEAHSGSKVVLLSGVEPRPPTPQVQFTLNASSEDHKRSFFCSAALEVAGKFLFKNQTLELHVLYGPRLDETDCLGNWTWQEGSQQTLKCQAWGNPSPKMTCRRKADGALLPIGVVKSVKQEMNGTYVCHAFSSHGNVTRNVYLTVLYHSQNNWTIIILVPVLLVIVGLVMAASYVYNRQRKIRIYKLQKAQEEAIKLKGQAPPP
T3 sequence (P05362 28-532): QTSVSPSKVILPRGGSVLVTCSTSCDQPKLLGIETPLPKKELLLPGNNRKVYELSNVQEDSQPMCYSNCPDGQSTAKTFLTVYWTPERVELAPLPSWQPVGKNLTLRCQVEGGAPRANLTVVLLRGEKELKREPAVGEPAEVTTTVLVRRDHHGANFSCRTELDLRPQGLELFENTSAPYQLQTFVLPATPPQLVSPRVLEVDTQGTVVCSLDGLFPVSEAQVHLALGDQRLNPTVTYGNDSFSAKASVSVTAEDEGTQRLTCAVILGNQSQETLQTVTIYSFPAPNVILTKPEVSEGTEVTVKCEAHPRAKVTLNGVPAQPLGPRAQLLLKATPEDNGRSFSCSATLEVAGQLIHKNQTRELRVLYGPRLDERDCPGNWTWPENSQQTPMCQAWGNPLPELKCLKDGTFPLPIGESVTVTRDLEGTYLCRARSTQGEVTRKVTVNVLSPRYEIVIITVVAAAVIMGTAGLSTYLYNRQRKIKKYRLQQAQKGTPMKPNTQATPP
T1 sequence (P05362 28-532): as above
T4 sequence (P13597 28-537): as the sequence (P13597 28-537) above

O=C[C@@H](O)[C@@H](O)[C@H](O)[C@H](O)COP(=O)(O)O [mannose-6-phosphate, reference compound]
Effect of excess free competitor in the media on targeting of γ3/ASM carriers to endothelial cells [1]: did not compete

NNQKIVNLKEKVAQLEA (fibrinogen-derived gamma-3) [γ3]
Effect of excess free competitor in the media on targeting of γ3/ASM carriers to endothelial cells [1]: suppressed | Fibrin microemboli in circulation ([2]; 1 min after microemboli injection): remain in circulation | Microemboli lodging in organs ([2]; kidneys and spleen, 15 min after injection): attenuating microemboli lodging in organs

FSPHSRT (phage display-derived peptide B9) [also tested as phage clone]
Leukocyte transmigration across endothelial cells (ICAM-1 on HUVEC): inhibit leukocyte transmigration | Inhibition of binding of anti-ICAM nanocarriers to human endothelial cells [3]: ~80 % inhibition

GSLLSAA [B8, GSLLSAA]
Internalization of phage viruses by endothelial cells (mouse endothelial cells): not | Leukocyte transmigration across endothelial cells (ICAM-1 on HUVEC): inhibit leukocyte transmigration | Inhibition of binding of anti-ICAM nanocarriers to human endothelial cells [3]: at some extent

N=C(N)NC(=O)c1nc(Cl)c(N)nc1N [amiloride, reference compound]
Effect of modulator on endocytic transport of peptide carriers (HUVEC; 3 mM amiloride or 0.1 μM PMA pre-treatment): inhibited | Reduction of transport of 125I-anti-ICAM carriers by amiloride (Caco-2 monolayers; 3 h): about 50% | Uptake of anti-ICAM carriers in presence of amiloride (Caco-2 cells): 20 % of the control value | inhibition at 3000 µM (mouse endothelial cells; Mus musculus, Endothelial cell, phages A1, B7, B9, D6, 3 mM amiloride, read-out: Inhibition of phage internalization by amiloride): 41 to 59%

^125I-albumin: radiolabelled bovine serum albumin, standard for passive transport
Papp A→B (Caco-2 monolayers; Caco-2): 0.03 ± 20000 ×10⁻⁶ cm/s

YQATPLP (phage display-derived peptide B7) [also tested as phage clone]
Leukocyte transmigration across endothelial cells (ICAM-1 on HUVEC): inhibit leukocyte transmigration

NNQKIVNIKEKVAQIEA (fibrinogen-derived 2-gamma-3) [2γ3]
Binding, internalization and lysosomal transport of carriers (HUVEC): similar

GCKLCAQ (phage display-derived peptide D6) [also tested as phage clone]
Leukocyte transmigration across endothelial cells (ICAM-1 on HUVEC): inhibit leukocyte transmigration

NNQKLVNIKEKVAQIEA (fibrinogen-derived 3-gamma-3) [3γ3]
Binding, internalization and lysosomal transport of carriers (HUVEC): similar

YPFLPTA (phage display-derived peptide B10) [also tested as phage clone]
Internalization of phage viruses by endothelial cells (mouse endothelial cells): not | Leukocyte transmigration across endothelial cells (ICAM-1 on HUVEC): inhibit leukocyte transmigration

B1: free ASM: recombinant acid sphingomyelinase, an enzyme that binds to mannose-6-phosphate receptor (protein, UniProt P17405 47-631, looked up)
Sphingomyelin …: LALSDSRVLWAPAEAHPLSPQGHPARLHRIVPRLRDVFGWGNLTCPICKGLFTAINLGLKKEPNVARVGSVAIKLCNLLKIAPPAVCQSIVHLFEDDMVEVWRRSVLSPSEACGLLLGSTCGHWDIFSSWNISLPTVPKPPPKPPSPPAPGAPVSRILFLTDLHWDHDYLEGTDPDCADPLCCRRGSGLPPASRPGAGYWGEYSKCDLPLRTLESLLSGLGPAGPFDMVYWTGDIPAHDVWHQTRQDQLRALTTVTALVRKFLGPVPVYPAVGNHESTPVNSFPPPFIEGNHSSRWLYEAMAKAWEPWLPAEALRTLRIGGFYALSPYPGLRLISLNMNFCSRENFWLLINSTDPAGQLQWLVGELQAAEDRGDKVHIIGHIPPGHCLKSWSWNYYRIVARYENTLAAQFFGHTHVDEFEVFYDEETLSRPLAVAFLAPSATTYIGLNPGYRVYQIDGNYSGSSHVVLDHETYILNLTQANIPGAIPHWQLLYRARETYGLPNTLPTAWHNLVYRMRGDMQLFQTFWFLYHKGHPPSEPCGTPCRLATLCAQLSARADSPALCRHLMPDGSLPEAQSLWPRPLFC
Lung accumulation, fold lower than ICAM-1 targeting (ICAM-1): 10 fold
